Like-named read-outs stand apart in the source and are kept apart here.
Legend:
[1] = test system: 70S ribosomes displaying cognate (UUC) or near-cognate (CUC) codon in the A site; assay: GTP hydrolysis by EF-Tu in ternary complex (initial codon selection), quench-flow; format: biochemical, E. coli
Text: (§1) To study the impact of viomycin on translational accuracy, we designed experiments to measure its effect on the kinetic efficiency ( kcat/KM ) of GTP hydrolysis by EF-Tu and peptide bond formation for both cognate and near-cognate codon-anticodon interactions. A reaction mixture containing varying concentrations of viomycin and Phe-tRNAGAAPhe in TC with EF-Tu·GTP was rapidly mixed in a quench-flow instrument with initiated 70S ribosomes displaying either cognate (UUC) or near-cognate (CUC) codons in the A site. For studying GTP hydrolysis, the TCs contained [^3H]GTP and the 70S ribosomes had non-radioactive fMet-tRNA^fMet in the P site, while for studying peptide bond formation the TCs contained non-radioactive GTP and the 70S ribosomes had f[^3H]Met-tRNA^fMet bound in the P site. The reactions were stopped at different times by addition of formic acid and the relative amounts of the reaction products were analyzed by ion-exchange chromatography ([^3H]GDP) or RP-HPLC (f[^3H]Met-Phe) with on-line radiation detection.
(§2) All experiments were performed at 37°C in HEPES-polymix buffer (95 mM KCl, 5 mM NH4Cl, 0.5 mM CaCl2, 8 mM putrescine, 1 mM spermidine, 5 mM Mg(OAc)2, 1 mM dithioerythritol and 5 mM HEPES pH 7.5). All reaction mixes contained 10 mM phosphoenolpyruvate (PEP), 1 µg/ml pyruvate kinase (PK) and 0.1 µg/ml myokinase (MK). His-tagged initiation factors IF1, IF2 and IF3, elongation factor Ts, and phenylalanine and leucine aminoacyl tRNA-synthetases were purified using nickel-affinity chromatography (HisTrap GE Healthcare). Wild-type elongation factor Tu was prepared as in [Ehrenberg et al. (1990)]. All protein concentrations were determined using the Bradford assay. Ribosomes (E. coli MRE600) and f[^3H]Met-tRNA^fMet were prepared according to [Antoun et al. (2004)]; ribosome concentration was determined spectrophotometrically. XR7 mRNAs with coding sequences AUG-UUC, AUG-CUC, AUG-UAC and AUG-UUA were prepared as in [Borg and Ehrenberg (2015)], see theGV Appendix I for full mRNA sequences. tRNA^Phe was prepared as in [Holm et al. (2016)]. [^3H]Met and [^3H]GTP were from Perkin-Elmer, viomycin was from USP, all other chemicals were from either Merck or Sigma-Aldrich.
Two mixtures were prepared. The ribosome mixture contained 70S ribosomes (1.0–2.0 µM), IF1, IF2 and IF3 (2 µM each), fMet-tRNA^fMet(1.5–3.0 µM), mRNA (3 µM), GTP (1 mM) and ATP (1 mM). The TC mixture contained EF-Tu (0.3–0.6 µM), phenylalanine (200 µM), PheRS (0.5 µM), tRNA^Phe (2 µM), viomycin (0–2000 µM), [^3H]GTP (0.3–0.6 µM) and ATP (2 mM). After 15 min incubation at 37°C, equal volumes of the two mixes were rapidly mixed and the reaction quenched at different time points with formic acid (17% final concentration) using a quench-flow instrument (RQF-3 KinTek corp.). After quenching, the samples were centrifuged at 20,800 g. The supernatant, containing the [^3H]GTP and [^3H]GDP was analyzed by anion exchange chromatography with on-line scintillation counting (β-RAM model 4 IN/US systems). A Mono-Q GL column (GE Healthcare) was used and the mobile phase was a multistep gradient of 0–2 M NaCl in 20 mM Tris (pH 7.5).
Reaction rates were estimated by fitting of single exponential functions to the experimental time courses except for the GTP hydrolysis reactions without viomycin on near-cognate codons which were analyzed as in [Johansson et al. (2012)]. kcat/KM values were estimated by fitting of the Michaelis-Menten equation to plots of reaction rates versus concentration. […]

[2] = test system: 70S ribosomes displaying cognate UUC or near-cognate codons CUC, AUC, UAC or UUA in the A site; assay: f[^3H]Met-Phe dipeptide formation, quench-flow; format: biochemical, E. coli
Text: as §1
The model presented above predicts that viomycin sensitivity ( KInc ) for any codon·anticodon pair depends on the accuracy of initial codon selection as defined by the product of the near-cognate back reaction rate constants q3nc and q4nc (Equations 4 and 5) in the absence as well as presence of viomycin. […] To test this prediction, we measured how the kcat/KM of dipeptide formation varied with viomycin concentration for tRNAGAAPhe reading three additional near-cognate codons (Figure 4A); AUC, UAC or UUA (the underlined base differs from the cognate codon UUC). We quantified the viomycin sensitivity of each codon by estimating its KI value by fitting of Equation 4 to plots of kcat/KM versus viomycin concentration (Figure 4B). We also estimated the accuracies of initial selection by measuring kcat/KM for GTP hydrolysis with the three codons in the absence of viomycin. Both sets of experiments were carried out exactly as described above.
as §2
Two mixtures were prepared. The ribosome mixture contained 70S ribosomes (0.5 µM), IF1, IF2 and IF3 (1 µM each), f[^3H]Met-tRNA^fMet (1 µM), mRNA (2 µM), GTP (1 mM) and ATP (1 mM). The TC mixture contained EF-Tu (1–10 µM), EF-Ts (1 µM), phenylalanine (200 µM), PheRS (0.5 µM), tRNA^Phe (12 µM), viomycin (0–2000 µM), GTP (1 mM) and ATP (1 mM). After 15 min incubation at 37°C, equal volumes of the two mixes were rapidly mixed and the reaction quenched at different time points with formic acid (17% final concentration) using a quench-flow instrument (RQF-3 KinTek corp.). After quenching, the samples were centrifuged at 20,800 g and the supernatant discarded. The pellet was dissolved in 165 µl 0.5 M KOH to cleave the peptides from the tRNA. […]

[3] = test system: TC^H84A on 70S ribosomes displaying cognate UUC or near-cognate CUC codon; assay: EF-Tu^H84A chase experiments (ternary complex dissociation from the A site); format: biochemical, E. coli; conditions: 37°C
Text: To address whether viomycin also stabilizes TCs in the A site during initial codon selection, we estimated the rate of dissociation of both cognate and near-cognate tRNAs in TC (TC ^H84A) with a GTPase-deficient mutant of EF-Tu (EF-Tu^H84A). In this EF-Tu mutant, an essential histidine in the G-domain has been replaced by alanine ([Daviter et al., 2003]), but formation of TC ^H84A is unhindered and the mutant TC carries out all partial reactions during initial codon selection, excluding GTP hydrolysis ([Daviter et al., 2003]; [Gromadski and Rodnina, 2004]). Initiated 70S ribosomes with f[^3H]Met-tRNA^fMet in the P site and a cognate (UUC) or near-cognate (CUC) codon in the A site were equilibrated with TC^H84A containing Phe-tRNAGAAPhe and GTP in the presence of varying concentrations of viomycin. TC^H84As were chased from the A site by addition of GTPase proficient TC, containing WT EF-Tu (EF-Tu^WT) and either Phe-tRNAGAAPhe or Leu-tRNAGAGLeu2 , whichever was cognate for the codon in the A site. The dissociation rate for TC^H84A s from the A site, defined as the inverse of the average dissociation time, was then estimated from the rate of f[^3H]Met-Phe or f[^3H]Met-Leu formation (supplementary methods).
as §2
The wild type tufA gene from E. coli Mg1655 was cloned in the pET21b vector with a C-terminal hexahistidine tag. Using this construct, the Histidine at position 84 was changed to Alanine by following the standard protocol from the QIAGEN site directed mutagenesis kit. Successful mutation was confirmed by DNA sequencing. […]

mRNA translocation = conditions: ref Holm et al., 2016; Modolell and Vázquez, 1977; cited from earlier work
ribosome = conditions: ref Holm et al., 2016; cited from earlier work
Text: From these structures it seems likely that association of viomycin to the ribosome requires bases A1492 and A1493 in their flipped-out conformation and that the presence of viomycin on the ribosome will effectively block the monitoring bases from re ...

[4] = test system: peptidyl-tRNA in the ribosomal A site; conditions: ref Holm et al., 2016; Peske et al., 2004; cited from earlier work
tRNA selection = test system: tRNA selection; design: method as in Marrero et al., 1980; conditions: ref Marrero et al., 1980; cited from earlier work
[5] = CUC vs UUC, 1 mM viomycin vs absence of viomycin

## viomycin
[1]; [5]
  reduction in the accuracy of initial codon selection: 170 fold
[1]; cognate UUC codon, Phe-tRNA^Phe TC, viomycin 0 to 1 mM, HEPES-polymix pH 7.5, 37°C, error SEM
  kcat/KM of cognate GTP hydrolysis (average over 0 to 1 mM viomycin): 4.1e+07 ± 600000 M⁻¹ s⁻¹
[1]; cognate UUC codon, viomycin 0 to 1 mM, 37°C
  effect of viomycin on kcat/KM of cognate GTP hydrolysis: did not change with increasing viomycin concentration
[1]; near-cognate CUC codon, 1 mM viomycin (0.053 ± 0.005 in the absence of viomycin), HEPES-polymix pH 7.5, 37°C, error SEM
  kcat/KM of near-cognate GTP hydrolysis: 9.2e+06 ± 700000 M⁻¹ s⁻¹
[1]; tRNA^Phe(GAA) reading near-cognate codon CUC, fit of Equation 4 (Figure 1B), 37°C, read-out: KI (viomycin concentration at which accuracy has decreased to two), from GTP hydrolysis
  Ki: 3.1 ± 0.2 mM
[2]; CUC vs UUC, 1 mM viomycin (83,500 ± 8000 without viomycin)
  total accuracy: 4.0 ± 0.3
[2]; [5]
  reduction in total accuracy: 21,000 fold
[2]; codons CUC, AUC, UAC, UUA (Figure 4C)
  correlation of accuracy of initial selection with viomycin KI: clear correlation between the two
[2]; cognate UUC codon, 37°C
  effect of viomycin on kcat/KM of cognate dipeptide formation: did not change with the addition of viomycin
[2]; cognate UUC codon, HEPES-polymix pH 7.5, 37°C, error SEM
  kcat/KM of cognate dipeptide formation (average over viomycin concentrations): 3.83e+07 ± 700000 M⁻¹ s⁻¹
[2]; near-cognate CUC codon, 1 mM viomycin (0.0005 ± 0.00004 in the absence of viomycin), HEPES-polymix pH 7.5, 37°C, error SEM
  kcat/KM of near-cognate dipeptide formation: 9.4e+06 ± 800000 M⁻¹ s⁻¹
[2]; near-cognate CUC codon, all tested viomycin concentrations
  kcat/KM of near-cognate GTP hydrolysis compared with dipeptide formation: virtually identical
[2]; near-cognate CUC, from in vitro experiments
  viomycin concentration required to double the rate at which tRNA^Phe reads the codon CUC: 80 ± 8 nM
[2]; near-cognate, proofreading accuracy 115 ± 15 in the absence of viomycin
  proofreading selection by viomycin-bound ribosomes: incapable of performing proofreading selection
[2]; tRNA^Phe(GAA) reading near-cognate codon AUC (first position mismatch), fit of Equation 4, accuracy of initial selection 2400 ± 120 without viomycin, read-out: KI from dipeptide formation, AUC
  Ki: 7 ± 0.3 mM
[2]; tRNA^Phe(GAA) reading near-cognate codon CUC, fit of Equation 4 (Figure 1D), 37°C, read-out: KI (viomycin concentration at which accuracy has decreased to two), from dipeptide formation, CUC
  Ki: 3.3 ± 0.1 mM
[2]; tRNA^Phe(GAA) reading near-cognate codon UAC (second position mismatch), fit of Equation 4, accuracy of initial selection 6400 ± 670 without viomycin, read-out: KI from dipeptide formation, UAC
  Ki: 29 ± 2.7 mM
[2]; tRNA^Phe(GAA) reading near-cognate codon UUA (third position mismatch), fit of Equation 4, accuracy of initial selection 580 ± 47 without viomycin, read-out: KI from dipeptide formation, UUA
  Ki: 3.25 ± 0.2 mM
[3]; cognate UUC codon, 1 µM viomycin (1.21 ± 0.088 in the absence of viomycin), pH 7.5
  rate of TC^H84A dissociation, cognate, 1 µM viomycin: 0.616 ± 0.044 s⁻¹
[3]; cognate UUC codon, 10 µM viomycin (1.21 ± 0.088 in the absence of viomycin), pH 7.5
  rate of TC^H84A dissociation, cognate, 10 µM viomycin: 0.198 ± 0.0275 s⁻¹
[3]; near-cognate CUC codon, 200 µM viomycin, pH 7.5
  apparent near-cognate TC^H84A dissociation rate, 200 µM viomycin: 0.209 ± 0.066 s⁻¹
[3]; tRNA^Phe(GAA) reading cognate codon UUC, linear fit of Equation 6 to dissociation mean times (Figure 2B), read-out: KI^c (viomycin concentration at which rate of viomycin rebinding to TC-bound ribosome equals rate of TC dissociation unhindered by rebinding)
  Ki: 0.0094 ± 0.0033 mM
mRNA translocation
  effect on rate of mRNA translocation: reduces the rate of mRNA translocation
ribosome
  effect of A-site-bound tRNA on affinity of viomycin for the ribosome: A-site-bound tRNA greatly increases the affinity of viomycin for the ribosome
[4]
  stabilization of peptidyl-tRNA in the ribosomal A site: strongly stabilize peptidyl-tRNA in the ribosomal A site
tRNA selection
  effect on fidelity of tRNA selection: impairs the fidelity of tRNA selection
